Laboratory results reported in the NIST ThermoML archive (doi:10.1021/acs.jced.8b01099).
± gives the expanded uncertainty stated by the source.

What was measured:
[1] = Crystal; DSC
[2] = Molar enthalpy of transition or fusion; details: Crystal; DSC

For `CC(C)N1C(=O)N(c2ccccc2)CSC1=NC(C)(C)C` [buprofezin], the Triple point temperature [1] was 377.95 ± 1.2 K and the “Molar enthalpy of transition or fusion” value [2] was 7.18 ± 0.239 kcal/mol.
